Experiment [1] deals with Pythium ultimum. Put plainly: Pythium ultimum in vitro Fungitoxicity Assay in liquid culture. The format is cell-based, Pythium ultimum (ATCC 26083). Conditions: Globisporangium ultimum; mycelial dry weight, 48 h at 25° C., shaking at 60 rpm; read-out: EC 50. As to the method:
Selected compounds of Examples 1-120 were subjected also to the following in vitro fungitoxicity assay against Pythium ultimum in a liquid culture, with the results as indicated in Table 6.
Pythium ultimum Fungitoxicity Assay
A dilution series of the test compound was prepared in dimethylsulfoxide, and 0.1 ml of each dilution was added to 19.9 ml of a liquid asparagine-sucrose medium (D. C. Erwin and K. Katznelson (1971), Can. J. Microbiol. 7, 15) in 9 cm diameter petri dishes to give the desired final concentrations of test compound. Plates were inoculated with mycelial plugs, 7 mm diameter, taken from the growing edge of 48 h old cultures of Pythium ultimum, (ATCC 26083), grown on potato dextrose agar. Two replicate plates were used for each treatment. The increase in mycelial dry weight was determined after growth for 48 h at 25° C. with shaking at 60 rpm. EC50 values were calculated from dose response curves.

Experiment [2] deals with Puccinia recondita (f. sp. tritici Races PKB and PLD). Put plainly: whole plant or invertebrate. The experiment is classed as in vivo. Conditions: for pest or weed control at 100 ppm / pest or weed control at 200 ppm / pest or weed control at 50 ppm: Puccinia recondita, 240 h, read-out: % Control WLR; for % Control WLR: in vivo.
Experiment [3] concerns Pellicularia filamentosa (f. sp. sasiki). Put plainly: whole plant or invertebrate. The format is in vivo.
The subject of experiment [4] is Erysiphe graminis (f. sp. tritici). Put plainly: whole plant or invertebrate. The experiment is classed as in vivo.
The test system of experiment [5] is Phytophthora infestans. Put plainly: whole plant or invertebrate. The experiment is classed as in vivo. The conditions noted are these: for pest or weed control at 100 ppm / pest or weed control at 200 ppm: Phytophthora infestans, in Solanum lycopersicum, 96 h; for pest or weed control at 100 ppm: read-out: % Control TLB, application rate 100 ppm.
The subject of experiment [6] is Pseudomonas fluorescens. Put plainly: Alternate Minimum Inhibitory Concentrations Test (Table 4), Ps.fl. The format is cell-based. Conditions: Table 4 alternate test, 250 ppm to 0.8 ppm in TSB, 72 hours, 30° C.; for MIC: Pseudomonas fluorescens, read-out: MIC Ps.fl. An outline of the steps: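 Broth microdilution MIC in TSB: compound (from acetone stock) serially diluted 1:1 from 250 ppm to 0.8 ppm, inoculated with diluted 24 h culture. After 3 days at 30 °C, the lowest concentration with no growth was recorded as MIC.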

The test system of experiment [7] is Piricularia oryzae. Put plainly: whole plant or invertebrate. The format is in vivo. The conditions noted are these: for pest or weed control at 200 ppm / pest or weed control at 50 ppm: Pyricularia oryzae; for pest or weed control at 50 ppm: read-out: % Control RB, application rate 50 ppm.
In experiment [8] the test system is Pseudoperonospora cubensis. Put plainly: whole plant or invertebrate. The format is in vivo.
In experiment [9] the test system is Puccinia graminis (f. sp. tritici Race 15B-2). Put plainly: whole plant or invertebrate. The experiment is classed as in vivo.
Where [10] appears, read: Blumeria graminis, read-out: % Control WPM.
Where [11] appears, read: read-out: % Control TLB, application rate 200 ppm.
[12] abbreviates: read-out: % Control RB, application rate 200 ppm.
Setting [13] is: Pseudoperonospora cubensis, in Cucumis sativus, 168 h, read-out: % Control CDM.
The mark [14] stands for this setting: Puccinia graminis, 336 h, read-out: % Control WSR.

≈ marks a conversion by molar mass, not a printed value. Read-outs that look alike come from different tables or passages of the source. A value given as a limit tells only on which side of the number the result lay.

Regarding `CCCCCCCCNC(=O)/C=C\SCn1cncn1` [Compound 7, N-octyl-cis-3-[1-(1,2,4-triazoyl)methylthio]acrylamide], the EC50 in [1] was 50 µg/mL (≈ 169 µM). The pest or weed control at 100 ppm in experiment [2], in [4] (setting [10]) and in experiment [5] was 0% each time. The pest or weed control at 6 ppm in experiment [3] (120 h, read-out: % Control RSB) was 50%. Moreover, in experiment [6], the MIC was above 250 µg/mL.
As to `CCCCCCCCNC(=O)/C=C\SC(=O)c1ccc(N=C=S)cc1` [Compound 48, N-octyl-cis-3-[(4-isothiocyanobenzoyl)thio]acrylamide], in experiment [1], the EC50 came to 8.2 µg/mL (≈ 21.8 µM). In addition, the pest or weed control at 100 ppm in experiment [5] came out at 0%. Moreover, the minimal inhibitory concentration (MIC) in experiment [6] is above 250 µg/mL.
As to `CCCCCCCCNC(=O)/C=C\SC(=O)c1ccc(Br)cn1` [Compound 53, N-octyl-cis-3-[(5-bromo-2-pyridine)carbonylthio]acrylamide], the EC50 in experiment [1] came out at 10.2 µg/mL (≈ 25.5 µM). For the same compound, the pest or weed control at 100 ppm in [2] turned out to be 0%; in [3] (120 h, read-out: % Control RSB), 0%; in experiment [4] (setting [10]) it was 0%; in [5], 0%. For the same compound, the MIC in [6] was above 250 µg/mL.
Turning to `CCCCCCCCNC(=O)/C=C\SC(=O)c1cccn1C` [Compound 61, N-octyl-cis-3-[(1-methyl-2-pyrrole)carbonylthio]acrylamide], in [1], the EC50 is 59.5 µg/mL (≈ 185 µM). In addition, the pest or weed control at 200 ppm came to 0% in experiment [2]; 0% in experiment [3] (120 h, read-out: % Control RSB); 0% in experiment [4] (setting [10]); 0% in experiment [5] (setting [11]); 0% in experiment [7] (setting [12]). Moreover, in experiment [6], the minimal inhibitory concentration (MIC) is above 250 µg/mL.
With `CCCCCCCCNC(=O)/C=C\SC(=O)/C=C/c1ccco1` [Compound 68, N-octyl-cis-3-[(trans-3-(2-furan)propenoyl)thio]acrylamide], the pest or weed control at 12 ppm in [8] (setting [13]) worked out at 70%. For the same compound, the pest or weed control at 200 ppm stood at 0% in experiment [2]; 0% in experiment [3] (120 h, read-out: % Control RSB); 0% in experiment [4] (setting [10]); 90% in [5] (read-out: % Control TLB); 90% in [9] (setting [14]). Also, in experiment [7], the pest or weed control at 50 ppm is 80%. Further, in [6], the minimal inhibitory concentration (MIC) is above 250 µg/mL.
For `CCCCCCCCNC(=O)/C=C\SC(=O)CCc1ccccc1` [Compound 69, N-octyl-cis-3-[(3-phenylpropanoyl)thio]acrylamide], the pest or weed control at 50 ppm in [8] (setting [13]) is 85%. Besides, the “% Control WLR” value in experiment [2] came to 0 % Control. The pest or weed control at 200 ppm was 0% in experiment [3] (120 h, read-out: % Control RSB); 0% in [4] (setting [10]); 100% in [5] (setting [11]); 80% in [7] (setting [12]); 75% in [9] (setting [14]). Besides, the MIC in experiment [6] was above 250 µg/mL.
Turning to `CCCCCCCCNC(=O)/C=C\SC(=O)/C=C/c1ccc(C(F)(F)F)cc1` [Compound 70, N-octyl-cis-3-[(trans-3-(4-(trifluoromethyl)phenyl)propenoyl)thio]acrylamide], the EC50 in experiment [1] was 5 µg/mL (≈ 12.1 µM). For the same compound, the pest or weed control at 200 ppm in experiment [2] turned out to be 0%; in experiment [3] (120 h, read-out: % Control RSB) it was 0%; in experiment [4] (setting [10]), 0%; in experiment [5] (setting [11]), 0%; in experiment [7] (setting [12]), 50%. Also, the MIC in [6] is above 250 µg/mL.
With `CCCCCCCCNC(=O)/C=C\SC(=O)CCCc1ccccc1` [Compound 80, N-octyl-cis-3-[(4-phenylbutanoyl)thio]acrylamide], the pest or weed control at 50 ppm in experiment [8] (setting [13]) came to 85%. Besides, the pest or weed control at 200 ppm in experiment [2] was found to be 0%; in experiment [3] (120 h, read-out: % Control RSB), 50%; in [4] (setting [10]) it was 0%; in experiment [5] (setting [11]) it was 100%; in experiment [7] (setting [12]), 50%; in experiment [9] (setting [14]) it was 75%. Moreover, the minimal inhibitory concentration (MIC) in experiment [6] was above 250 µg/mL.
On to `CCCCCCCCNC(=O)/C=C\SC(=O)/C(=C/c1ccccc1)c1ccccc1` [Compound 82, N-octyl-cis-3-[(cis-2,3-diphenylpropenoyl)thio]acrylamide], for which the pest or weed control at 200 ppm in experiment [8] (setting [13]) came to 0%; in experiment [3] (120 h, read-out: % Control RSB), 0%; in experiment [4] (setting [10]), 0%; in experiment [5] (setting [11]), 0%; in [7] (setting [12]), 90%. Further, the pest or weed control at 50 ppm in [2] amounted to 50%. Also, in experiment [9] (setting [14]), the pest or weed control at 100 ppm came to 50%. Besides, in experiment [6], the minimum inhibitory concentration (MIC) is above 250 µg/mL.
As to `CCCCCC#CC(=O)S/C=C\C(=O)NCCCCCCCC` [Compound 86, N-octyl-cis-3-[(2-octynoyl)thio]acrylamide], the pest or weed control at 200 ppm in experiment [8] (setting [13]) amounted to 85%; in experiment [2] it was 50%; in [3] (120 h, read-out: % Control RSB), 0%; in experiment [4] (setting [10]), 0%; in [5] (read-out: % Control TLB) it was 90%; in experiment [7] (setting [12]), 0%. In experiment [9] (setting [14]), the pest or weed control at 100 ppm stood at 0%. In [6], the MIC was above 250 µg/mL.
Turning to `CCCCCCCCNC(=O)/C=C\SC(=O)COC` [Compound 87, N-octyl-cis-3-(methoxyacetylthio)acrylamide], the pest or weed control at 200 ppm in experiment [8] (setting [13]) amounted to 100%; in experiment [2] it was 80%; in experiment [3] (120 h, read-out: % Control RSB) it was 0%; in [5] (read-out: % Control TLB), 90%; in [7] (read-out: % Control RB) it was 95%. Also, in [4] (setting [10]), the pest or weed control at 12 ppm is 50%. Besides, the pest or weed control at 10 ppm in [9] (setting [14]) was determined as 50%. The MIC in experiment [6] is above 250 µg/mL.
For the compound `CCCCCCCCNC(=O)/C=C\SC(=O)C1=CC(=O)CC(C)(C)O1` [Compound 89, N-octyl-cis-3-[(3,4-dihydro-2,2-dimethyl-4-oxo-2H-pyran-6-carbonyl)thio]acrylamide], the pest or weed control at 200 ppm in experiment [8] (setting [13]) worked out at 70%; in experiment [2] it was 90%; in experiment [3] (120 h, read-out: % Control RSB) it was 0%; in experiment [4] (setting [10]), 0%; in [5] (read-out: % Control TLB), 90%; in [7] (read-out: % Control RB) it was 95%. Moreover, in experiment [9] (setting [14]), the pest or weed control at 100 ppm worked out at 80%. In addition, in experiment [6], the minimal inhibitory concentration (MIC) was above 250 µg/mL.
For `CCCCCCCCNC(=O)/C=C\SC(=O)CC1C=CCC1` (stereo not drawn) [Compound 93], the pest or weed control at 200 ppm came out at 99% in experiment [8] (setting [13]); 50% in experiment [2]; 0% in [3] (120 h, read-out: % Control RSB); 75% in experiment [4] (setting [10]); 90% in experiment [5] (read-out: % Control TLB). Moreover, the pest or weed control at 50 ppm in experiment [7] came out at 90%. Moreover, the pest or weed control at 100 ppm in [9] (setting [14]) amounted to 50%. In addition, the MIC in [6] was above 250 µg/mL.
On to `CCCCCCCCNC(=O)/C=C\SC(=O)/C=C/c1ccc([N+](=O)[O-])cc1` [Compound 96, N-octyl-cis-3-[(trans-3-(4-nitrophenyl)propenoyl)thio]acrylamide], for which the pest or weed control at 200 ppm in [8] (setting [13]) was 95%; in experiment [3] (120 h, read-out: % Control RSB), 50%; in experiment [4] (setting [10]) it was 75%; in experiment [5] (setting [11]), 0%; in [7] (read-out: % Control RB), 95%. Besides, the pest or weed control at 50 ppm in experiment [2] came to 0%. Besides, the pest or weed control at 100 ppm in experiment [9] (setting [14]) is 0%. Besides, the MIC in experiment [6] is above 250 µg/mL.
On to `CCCCCCCCNC(=O)/C=C\SC(=O)c1cccc(OC)c1[N+](=O)[O-]` [Compound 98, N-octyl-cis-3-[(2-nitro-3-methoxybenzoyl)thio]acrylamide], for which the pest or weed control at 200 ppm in [8] (setting [13]) stood at 50%; in experiment [2], 50%; in experiment [3] (120 h, read-out: % Control RSB), 0%; in experiment [5] (read-out: % Control TLB), 90%; in [7] (read-out: % Control RB), 99%. The pest or weed control at 50 ppm in experiment [4] (setting [10]) worked out at 0%. Besides, in [9] (setting [14]), the pest or weed control at 100 ppm turned out to be 0%. Moreover, in [6], the minimal inhibitory concentration (MIC) was above 250 µg/mL.
As to “N-octyl-cis-3-[(2-butenoyl)thio]acrylamide [Compound 20]”, the “% Control CDM” value in experiment [8] (in vivo) is recorded as 85 % Control. Also, in experiment [2], the “% Control WLR” value is 0 % Control. For the same compound, the “% Control RSB” value in [3] (in vivo) came to 0 % Control. In addition, the “% Control WPM” value in experiment [4] (in vivo) worked out at 0 % Control. For the same compound, the “% Control TLB” value in experiment [5] (application rate 6 ppm) is listed as 95 % Control. In experiment [7] (in vivo), the “% Control RB” value turned out to be 50 % Control. For the same compound, the “% Control WSR” value in [9] (application rate 200 ppm) is listed as 75 % Control. Besides, in [6], the “MIC Ps.fl” value is given as above 250 Ppm.

The values above are taken from patent US5300672A (priority 1992, dated 1994).
